Experimental data published in patent US9205128B2, “Method for inhibiting HIV replication in mammal and human cells” (priority 2010, dated 2015).
No end group written: not given here.

Tests used:
HIV-1 [1] = assay: Total virus challenge of MT4 cells, p24 antigen ELISA; assay type: cell-based; settings: HIV-1 Bru, m.o.i. 0.01, 5-day incubation
HIV-1 [2] = settings: PBMCs of infected individuals treated ex vivo; 15d-PGJ2 at 5 μM; vs untreated cells
Protocol: PBMCs were isolated from whole blood of HIV-1 infected individuals by Ficoll density gradients. […] Replication was evaluated by determining the p24 antigen concentration on culture supernatants by the ELISA method.

vimentin protein = settings: Stamatakis et al. 2006; cited from earlier work
HIV-2 CBL-20 strain = assay: HIV-2 replication in pre-stimulated PBMCs, p24; assay type: cell-based; settings: 7 days
Protocol: PBMCs were isolated from whole blood of healthy individuals by using Ficoll density gradients. […] Cells were subsequently maintained in PHA-free medium and seeded at 150 000 cells per well in 96-well plates. After 24 h, peptides were added at different concentrations and the cultures were infected with the CBL-20 HIV-2 strain. The cultures were kept for 7 days, being changed every 3 days the medium and the peptides added. Cultures were harvested and supernatants collected to evaluate the presence of the p24 viral protein.

HIV-1 [3] = settings: 150 mg per day, 6 months follow-up; two of eight patients (both formulations pooled)
[4] = tested on: cytoskeletal intermediate filaments (IFs); assay: IFs structural analysis by transmission electron microscopy; assay type: cell-based, human; settings: treated patients (two with SEQ ID No. 1, three with SEQ ID No. 2)
Protocol: Firstly, MT4vim(s), MT4K-10(s) and MT4 cells were fixed in 3.2% glutaraldehyde for 1 h at 4° C. and then fixed in 2% osmium tetroxide for 1 h at 4° C. They were subsequently washed with 0.1 M phosphate buffered saline (PBS), pH 7.2, and dehydrated at increasing ethanol concentrations (30, 50, 70 and 100%) for 10 min each at 4° C. Inclusion was carried out and ultrathin 40-50 nm-width sections were taken in an ultramicrotome (NOVA, LKB), which were placed on 400-orifices nickel trays. Once the ultrathin cuts were taken and placed on the trays, they were contrasted with saturated uranyl acetate and lead citrate, and further examined under a JEOL JEM 2000 EX (JEOL) microscope. Five microphotographs were analyzed at different magnifications. MT4 cell intact IFs are shown in FIG. 5A, meanwhile these structures appeared shortened in MT4vim(s) MT4K-10(s) cells (FIGS. 5B and C, respectively). […] Inhibition of the viral replication was observed under these conditions. Vimentin or keratin-10 proteins were identified at IFs by immunomicroscopy.
IFs structure was analyzed by transmission electron microscopy, following the methodology described in Example 3.
IFs structures were analyzed by transmission electron microscopy, following the methodology described in Example 3. […]

MT4 cells = assay: Cellular penetration of peptides by flow cytometry; assay type: cell-based, human; settings: 5-40 μM, 15, 30 and 60 min
Protocol: HeLa CD4+ cells were seeded in RPMI medium supplemented at 10% FBS and incubated until reaching 60% confluence of the monolayer. MT4 cells were seeded at 50 000 cells per well in RPMI medium at 10% FBS. Peptides identified as SEQ ID No. 1 and SEQ ID No. 3 were resuspended in injection water and evaluated at 5, 10, and 40 μM concentrations. Peptides were incubated for […] at 37° C. under a 5% CO2 atmosphere, and penetration was evaluated after 15, 30 and 60 min. After each period of time, cells were harvested and immediately analyzed by flow cytometry. Three replicates were analyzed per experimental variant.

vimentin = target: T1, vimentin (Homo sapiens, UniProt P08670); assay: Western blot of vimentin in MT4 cells incubated with peptides; assay type: cell-based; settings: 50 μM peptide, 24 h
T1 construct: these proteins are endogenous cellular proteins rather than viral; endogenous in cells; host or cells: MT4 cell line (untransduced, shRNA-transduced MT4vim(s), or peptide-treated)
Protocol: The MT4 cell line was incubated at 50 μM of each peptide for 24 h. The vimentin protein was detected by the western blot technique. Cellular extracts were resuspended in 1% sodium dodecyl sulphate (SDS) and applied in a 10% polyacrylamide gel, being further transferred to a Hybond-P […] membrane. For immunoidentification purposes, anti-vimentin and anti-β actin (as control) antibodies were used. An anti-mouse IgG antibody-peroxidase conjugate was used as secondary antibody. The activity of the peroxidase enzyme was visualized by using diaminobenzidine in the presence of hydrogen peroxide and PBS.

T1 sequence (P08670 whole entry): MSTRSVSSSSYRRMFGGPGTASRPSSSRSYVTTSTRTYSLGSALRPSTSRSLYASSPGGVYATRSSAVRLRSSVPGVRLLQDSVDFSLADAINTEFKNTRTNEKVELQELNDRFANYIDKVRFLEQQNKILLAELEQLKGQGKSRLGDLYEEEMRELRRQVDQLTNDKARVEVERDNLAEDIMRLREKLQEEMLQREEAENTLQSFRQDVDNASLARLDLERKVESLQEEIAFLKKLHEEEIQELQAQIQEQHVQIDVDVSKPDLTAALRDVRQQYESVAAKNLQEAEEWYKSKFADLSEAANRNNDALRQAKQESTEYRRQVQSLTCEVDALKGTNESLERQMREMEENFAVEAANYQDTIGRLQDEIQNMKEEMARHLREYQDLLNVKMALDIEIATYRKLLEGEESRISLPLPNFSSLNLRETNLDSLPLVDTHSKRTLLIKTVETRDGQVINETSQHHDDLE

CCCCC/C=C/C=C1/C(=O)C=C[C@@H]1C/C=C\CCCC(=O)O [Peptide 15d-PGJ2, prostaglandin cyclopentane 15 deoxy-Δ-^12,14-PGJ2]
HIV replication (HIV-1 [1]): inhibits the HIV replication in vitro
% of HIV-1 inhibition (HIV-1 [2]): 80.1%
binding to vimentin (vimentin protein): binds to the vimentin protein

DMEIATYRTLLEGEESRM [Peptide 2]
HIV-2 replication (HIV-2 CBL-20 strain): inhibited HIV-2 replication in a dose-dependent manner
viral load after treatment (HIV-1 [3]): undetectable
IFs structure [4]: shortened
% of HIV-1 inhibition (HIV-1 [2]): 81.1%

KVELQELNDRFANYIDKVRF [Peptide 3]
% of HIV-1 inhibition (HIV-1 [2]): 85.3%

RVTQMNLNDRLASLYDKV [Peptide 1]
penetration into cells (MT4 cells): able to penetrate by their own into the MT4 cells
% of HIV-1 inhibition (HIV-1 [2]): 89.3%

RVTQMNLNDRLASLYDKVHYRIKPTFRRLKWKYKGKFW [Peptide 9]
HIV-2 replication (HIV-2 CBL-20 strain): inhibited HIV-2 replication in a dose-dependent manner
vimentin band intensity (vimentin): decreased intensity
% of HIV-1 inhibition (HIV-1 [2]): 81.3%

RVTQMNLNDRLASLYDKVRALEESNYELEGKIKEW [Peptide 8]
HIV-2 replication (HIV-2 CBL-20 strain): inhibited HIV-2 replication in a dose-dependent manner
vimentin band intensity (vimentin): decreased intensity
% of HIV-1 inhibition (HIV-1 [2]): 86.7%
